Square brackets hold non-standard residues; d marks the D form. Peptide text beside a SMILES is read from it. dArg(NO2) = N=C(NCCC[C@@H](N)C(=O)O)N[N+](=O)[O-]
Columns and labels:
[1] = Selectivity ratio of Ki value of eNOS to nNOS
[2] = Selectivity ratio of Ki value of iNOS to nNOS
Nitric oxide synthase 3 = target: T1, Nitric oxide synthase 3 (Bos taurus, UniProt P29473)
T1 sequence (P29473 whole entry): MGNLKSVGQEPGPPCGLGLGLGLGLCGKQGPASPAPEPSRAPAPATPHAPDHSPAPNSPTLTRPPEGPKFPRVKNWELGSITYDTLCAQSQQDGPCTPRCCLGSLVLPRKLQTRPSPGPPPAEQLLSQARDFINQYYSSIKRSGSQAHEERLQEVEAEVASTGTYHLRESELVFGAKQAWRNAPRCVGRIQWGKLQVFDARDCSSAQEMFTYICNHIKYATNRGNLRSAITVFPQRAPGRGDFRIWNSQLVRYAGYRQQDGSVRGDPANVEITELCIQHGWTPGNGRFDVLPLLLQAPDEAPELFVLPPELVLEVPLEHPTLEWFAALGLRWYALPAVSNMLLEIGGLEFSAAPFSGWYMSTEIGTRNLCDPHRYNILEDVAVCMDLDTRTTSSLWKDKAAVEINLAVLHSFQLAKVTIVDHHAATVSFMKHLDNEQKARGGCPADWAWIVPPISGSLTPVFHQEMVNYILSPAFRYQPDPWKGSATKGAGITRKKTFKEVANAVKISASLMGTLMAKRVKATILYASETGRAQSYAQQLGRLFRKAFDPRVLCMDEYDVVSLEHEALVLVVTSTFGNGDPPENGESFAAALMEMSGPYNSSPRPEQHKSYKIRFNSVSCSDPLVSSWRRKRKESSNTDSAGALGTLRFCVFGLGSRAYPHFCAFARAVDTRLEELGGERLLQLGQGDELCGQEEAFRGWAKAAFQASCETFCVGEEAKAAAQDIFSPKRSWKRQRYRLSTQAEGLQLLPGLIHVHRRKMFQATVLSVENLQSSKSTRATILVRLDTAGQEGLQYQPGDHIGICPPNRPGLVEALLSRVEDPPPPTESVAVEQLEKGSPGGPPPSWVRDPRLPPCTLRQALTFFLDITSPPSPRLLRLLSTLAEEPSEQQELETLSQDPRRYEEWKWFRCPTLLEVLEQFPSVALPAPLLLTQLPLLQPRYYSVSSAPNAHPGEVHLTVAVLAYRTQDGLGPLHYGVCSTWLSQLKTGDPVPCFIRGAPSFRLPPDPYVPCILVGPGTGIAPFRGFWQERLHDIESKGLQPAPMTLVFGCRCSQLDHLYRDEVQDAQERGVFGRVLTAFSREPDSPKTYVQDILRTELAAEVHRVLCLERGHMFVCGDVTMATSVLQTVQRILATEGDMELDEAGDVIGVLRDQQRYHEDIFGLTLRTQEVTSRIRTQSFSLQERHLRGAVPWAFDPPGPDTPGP
Description: Inhibitory activity against endothelial nitric oxide synthase (eNOS)

Nitric oxide synthase 1 = Nitric oxide synthase 1 (Rattus norvegicus, UniProt P29476)
Nitric oxide synthase 1, sequence (P29476 whole entry): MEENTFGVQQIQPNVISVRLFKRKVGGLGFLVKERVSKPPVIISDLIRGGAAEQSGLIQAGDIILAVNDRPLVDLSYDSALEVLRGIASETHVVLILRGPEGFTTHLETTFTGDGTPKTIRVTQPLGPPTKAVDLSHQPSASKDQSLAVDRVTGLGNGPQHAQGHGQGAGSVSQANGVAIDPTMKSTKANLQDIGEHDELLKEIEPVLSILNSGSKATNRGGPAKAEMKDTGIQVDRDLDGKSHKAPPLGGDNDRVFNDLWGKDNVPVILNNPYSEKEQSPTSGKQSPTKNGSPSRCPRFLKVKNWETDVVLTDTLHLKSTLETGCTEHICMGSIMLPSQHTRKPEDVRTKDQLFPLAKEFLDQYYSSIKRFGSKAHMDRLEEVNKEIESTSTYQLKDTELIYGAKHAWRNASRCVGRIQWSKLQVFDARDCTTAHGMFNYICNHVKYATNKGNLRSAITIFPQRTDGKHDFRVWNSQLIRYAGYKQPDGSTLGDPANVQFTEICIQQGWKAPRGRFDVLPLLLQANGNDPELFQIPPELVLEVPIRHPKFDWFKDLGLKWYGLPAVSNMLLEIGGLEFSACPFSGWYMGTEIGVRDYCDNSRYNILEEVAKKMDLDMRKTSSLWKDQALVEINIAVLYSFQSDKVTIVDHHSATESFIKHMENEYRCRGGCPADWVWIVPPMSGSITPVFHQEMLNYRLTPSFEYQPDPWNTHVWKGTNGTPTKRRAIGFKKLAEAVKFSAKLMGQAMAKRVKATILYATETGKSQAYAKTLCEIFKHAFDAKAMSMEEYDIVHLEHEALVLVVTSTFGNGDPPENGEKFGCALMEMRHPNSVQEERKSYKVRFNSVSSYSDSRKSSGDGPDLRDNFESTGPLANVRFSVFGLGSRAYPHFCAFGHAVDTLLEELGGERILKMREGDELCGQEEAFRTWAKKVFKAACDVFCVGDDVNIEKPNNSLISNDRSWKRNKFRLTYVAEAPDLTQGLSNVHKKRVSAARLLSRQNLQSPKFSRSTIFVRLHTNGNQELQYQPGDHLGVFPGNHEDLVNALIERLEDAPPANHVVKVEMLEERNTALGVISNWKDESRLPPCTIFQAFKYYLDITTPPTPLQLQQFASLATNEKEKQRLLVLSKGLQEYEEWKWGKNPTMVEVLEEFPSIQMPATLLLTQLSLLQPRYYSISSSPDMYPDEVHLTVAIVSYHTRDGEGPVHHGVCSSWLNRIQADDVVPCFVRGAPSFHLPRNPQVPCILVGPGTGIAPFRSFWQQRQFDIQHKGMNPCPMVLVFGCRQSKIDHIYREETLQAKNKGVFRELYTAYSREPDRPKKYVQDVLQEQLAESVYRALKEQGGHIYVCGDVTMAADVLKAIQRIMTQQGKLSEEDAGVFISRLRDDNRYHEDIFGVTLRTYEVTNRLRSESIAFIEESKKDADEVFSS
Description: Inhibitory activity against Neuronal Nitric Oxide Synthase (nNOS)

In the case of `N/C(=N\CCC[C@H](N)CNc1ccc(N)cc1)N[N+](=O)[O-]`, the Selectivity [1] is reported as 51 and the Selectivity [2] is reported as 149.

For `N=C(NCCC[C@H](N)CNCCc1ccncc1)N[N+](=O)[O-]`, the Ki (Nitric oxide synthase 3) was 193 µM.

In the case of `NCCCC[C@@H](N)C(=O)N[C@H](CCC/N=C(/N)N[N+](=O)[O-])C(N)=O` (H-[dK]-[dArg(NO2)]-NH2), the Ki (Nitric oxide synthase 1) is reported as 0.89 µM.

Work on `N=C(NCCC[C@H](N)CNCCc1ccccn1)N[N+](=O)[O-]` yielded a Ki (Nitric oxide synthase 3) of 123 µM.

In the case of `N/C(=N\CCC[C@H](N)CNCCc1ccc(N)cc1)N[N+](=O)[O-]`, the Selectivity [1] is reported as 230 and the Selectivity [2] is reported as 458.

With `N/C(=N\CCC[C@H](N)CNc1cccc(N)c1)N[N+](=O)[O-]` the Selectivity [1] was 36 and the Selectivity [2] was 127.

For `N/C(=N\CCC[C@H](N)CNCc1cccnc1)N[N+](=O)[O-]`, the Selectivity [1] was 951 and the Selectivity [2] was 256.

Work on `N/C(=N\CCC[C@H](N)CNCCc1ccccc1N)N[N+](=O)[O-]` yielded a Selectivity [1] of 22.1 and a Selectivity [2] of 135.

In the case of `N/C(=N\CCC[C@H](N)CNCCc1cccc(N)c1)N[N+](=O)[O-]`, the Selectivity [1] is reported as 35 and the Selectivity [2] is reported as 122.

For `NCc1ccccc1NC[C@@H](N)CCC/N=C(\N)N[N+](=O)[O-]`, the Selectivity [1] was 7.17 and the Selectivity [2] was 5.28.

For `COC(=O)[C@@H](CCCNC(=N)N[N+](=O)[O-])NC(=O)[C@H](N)Cc1ccccc1` (H-[dF]-[dArg(NO2)]-OMe), the Ki (Nitric oxide synthase 1) was 2 µM, the Selectivity [1] was 2.5 and the Selectivity [2] was 1800.

Compound `NCc1ccc(NC[C@@H](N)CCC/N=C(\N)N[N+](=O)[O-])cc1` has a Selectivity [1] of 299 and a Selectivity [2] of 245.
